Data: the supplement of paper PMC10307832

How the values were obtained:
Test in all cases: relative viability (nuclei count vs DMSO), 5 days (fraction); higher = more cells survive
Linifanib + Trametinib = compound: Cc1ccc(F)c(NC(=O)Nc2ccc(-c3cccc4[nH]nc(N)c34)cc2)c1 [Linifanib] + CC(=O)Nc1cccc(-n2c(=O)n(C3CC3)c(=O)c3c(Nc4ccc(I)cc4F)n(C)c(=O)c(C)c32)c1 [Trametinib] (partner 0.02 µM)
Outline: (§1)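 Relative viability divides the nuclei count in treated wells by that in vehicle wells. Lung cancer cell lines were seeded in 1536-well plates, dosed by pin tool the next day, and fixed and stained after 5 days in one step with final 0.05% Triton X-100, 1% formaldehyde and 1 ug/ml Hoechst. Dosing was a single drug or a fixed anchor-drug dose plus five library-drug doses (not always all listed) in √10 steps, and values are medians of duplicate plates imaged at 4×.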

Linifanib + Bortezomib = compound: Cc1ccc(F)c(NC(=O)Nc2ccc(-c3cccc4[nH]nc(N)c34)cc2)c1 [Linifanib] + CC(C)C[C@H](NC(=O)[C@H](Cc1ccccc1)NC(=O)c1cnccn1)B(O)O [Bortezomib] (partner 0.002 µM)
Outline: as §1

Linifanib + Tozasertib = compound: Cc1ccc(F)c(NC(=O)Nc2ccc(-c3cccc4[nH]nc(N)c34)cc2)c1 [Linifanib] + Cc1cc(Nc2cc(N3CCN(C)CC3)nc(Sc3ccc(NC(=O)C4CC4)cc3)n2)n[nH]1 [Tozasertib] (partner 0.1 µM)
Outline: as §1

Cell Line	relative viability (Linifanib + Trametinib; first compound 0.03162 µM)	relative viability (Linifanib + Trametinib; first compound 0.1 µM)	relative viability (Linifanib + Trametinib; first compound 0.3162 µM)	relative viability (Linifanib + Bortezomib; first compound 0.03162 µM)	relative viability (Linifanib + Bortezomib; first compound 0.1 µM)	relative viability (Linifanib + Bortezomib; first compound 0.3162 µM)	relative viability (Linifanib + Tozasertib; first compound 0.03162 µM)	relative viability (Linifanib + Tozasertib; first compound 0.1 µM)	relative viability (Linifanib + Tozasertib; first compound 0.3162 µM)
LC-2-ad	0.87	0.924	0.824	0.976	1.23	0.98	0.416	0.445	0.472
BEN	0.929	0.946	1.1	0.723	0.975	0.778	0.446	0.441	0.484
NCI-H1944	0.427	0.416	0.381				0.249	0.261	0.259
HCC-827	0.559	0.522	0.514	1.04	0.991	0.977	0.442	0.419	0.384
HCC-44	1.05	1.07	1.03	0.925	0.915	0.818	0.558	1.05	0.812
ChaGo-K-1	0.904	0.942	0.86	0.946	1.18	0.926	0.239	0.245	0.228
NCI-H647	0.567	0.526	0.588	1.25	1.14	1.07	0.188	0.325	0.352
HOP-62	0.412	0.439	0.355	0.617	0.969	0.728	0.36	0.401	0.35
NCI-H1666	0.851	0.878	0.842	0.892	0.756	0.643	0.626	0.666	0.658
SW 900	0.76	0.83	0.912				0.392	0.614	0.692
PC-3 [JPC-3]	0.706	0.756	0.659	0.728	0.805	0.77	0.893	0.979	0.811
NCI-H661	0.577	0.591	0.55	0.88	0.915	0.645	0.35	0.35	0.36
NCI-H2085	0.67	0.503	0.59	1.07	1.06	0.971	0.793	0.772	0.843
NCI-H2126	0.584	0.571	0.547	1.05	1.1	1.14	0.847	0.998	0.806
NCI-H460	0.178	0.168	0.146	1.03	1.18	0.925	0.139	0.436	0.475
NCI-H596	0.813	0.894	0.749	0.899	1.06	1.08	0.798	0.815	0.9
LK-2	0.707	0.769	0.742				0.155	0.177	0.2
UMC-11	0.807	0.721	0.774	0.961	0.731	0.668	0.214	0.201	0.222

Cell Line	relative viability (Linifanib + Trametinib; first compound 0.03162 µM)	relative viability (Linifanib + Trametinib; first compound 0.1 µM)	relative viability (Linifanib + Trametinib; first compound 0.3162 µM)	relative viability (Linifanib + Bortezomib; first compound 0.03162 µM)	relative viability (Linifanib + Bortezomib; first compound 0.1 µM)	relative viability (Linifanib + Bortezomib; first compound 0.3162 µM)	relative viability (Linifanib + Tozasertib; first compound 0.03162 µM)	relative viability (Linifanib + Tozasertib; first compound 0.1 µM)	relative viability (Linifanib + Tozasertib; first compound 0.3162 µM)
RERF-LC-KJ	0.871	0.87	0.877	1.25	1.22	0.991	0.46	0.531	0.578
HCC-78	0.657	0.692	0.805	0.455	0.429	0.472	0.493	0.519	0.371
NCI-H1755	0.781	0.801	0.831	1.04	0.965	0.916	0.585	0.625	0.553
HCC-366	0.4	0.391	0.399	1	1.1	1.02	0.0836	0.0997	0.105
NCI-H2405	0.599	0.675	0.596	1.05	0.958	0.957	0.785	0.809	0.778
COR-L 105	0.444	0.451	0.45	0.954	0.851	0.735	0.334	0.321	0.336
NCI-H1395	0.943	0.882	0.933				0.691	0.725	0.729
NCI-H1915	0.279	0.339	0.297	1.01	0.937	0.98	0.436	0.469	0.399
ABC-1				0.25	0.343	0.285	0.152	0.173	0.176
NCI-H1650	0.563	0.673	0.541	0.216	0.212	0.199	0.389	0.475	0.377
PC-14	0.689	0.715	0.666	0.924	0.989	0.746	0.499	0.502	0.552
NCI-H358	0.121	0.121	0.137				0.113	0.112	0.106
EPLC-272H	0.254	0.292	0.274	1.21	1.04	0.785	0.346	0.209	0.181
HCC-15	0.346	0.409	0.365	1.04	0.99	0.988	0.39	0.406	0.436
NCI-H1993	0.623	0.593	0.61	1.1	1.39	1.2	0.62	0.638	0.57
NCI-H2170	0.922	0.855	0.937				0.706	0.716	0.712
NCI-H23	0.399	0.487	0.396	1.03	1.2	1.16	0.366	0.39	0.329
SK-LU-1	0.457	0.745	0.48	1.11	1.2	1.19	0.317	0.331	0.323
